In US7671085B2, “Non-steroidal farnesoid X receptor modulators and methods for the use thereof” (The Salk Institute for Biological Studies, priority 2002, dated 2010):

Molecular target: T1, mouse FXR and human RXR (Mus musculus, UniProt Q60641)
T1 construct: expressed in transfected cells; host or cells: CV-1 cells
T1 sequence (Q60641 1-488): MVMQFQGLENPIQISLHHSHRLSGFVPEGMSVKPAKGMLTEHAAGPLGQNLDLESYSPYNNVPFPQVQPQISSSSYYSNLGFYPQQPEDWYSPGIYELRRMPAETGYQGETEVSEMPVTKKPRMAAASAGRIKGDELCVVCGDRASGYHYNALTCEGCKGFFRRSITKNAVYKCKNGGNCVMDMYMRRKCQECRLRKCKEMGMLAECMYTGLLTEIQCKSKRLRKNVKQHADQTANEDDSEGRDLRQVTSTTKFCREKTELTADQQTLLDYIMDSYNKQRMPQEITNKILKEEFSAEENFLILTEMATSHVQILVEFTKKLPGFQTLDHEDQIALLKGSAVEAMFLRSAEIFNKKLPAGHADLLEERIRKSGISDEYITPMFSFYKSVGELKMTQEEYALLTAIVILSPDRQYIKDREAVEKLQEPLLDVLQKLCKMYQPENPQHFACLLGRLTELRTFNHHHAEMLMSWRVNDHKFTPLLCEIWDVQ
T1 sequence (P19793 1-462 partner): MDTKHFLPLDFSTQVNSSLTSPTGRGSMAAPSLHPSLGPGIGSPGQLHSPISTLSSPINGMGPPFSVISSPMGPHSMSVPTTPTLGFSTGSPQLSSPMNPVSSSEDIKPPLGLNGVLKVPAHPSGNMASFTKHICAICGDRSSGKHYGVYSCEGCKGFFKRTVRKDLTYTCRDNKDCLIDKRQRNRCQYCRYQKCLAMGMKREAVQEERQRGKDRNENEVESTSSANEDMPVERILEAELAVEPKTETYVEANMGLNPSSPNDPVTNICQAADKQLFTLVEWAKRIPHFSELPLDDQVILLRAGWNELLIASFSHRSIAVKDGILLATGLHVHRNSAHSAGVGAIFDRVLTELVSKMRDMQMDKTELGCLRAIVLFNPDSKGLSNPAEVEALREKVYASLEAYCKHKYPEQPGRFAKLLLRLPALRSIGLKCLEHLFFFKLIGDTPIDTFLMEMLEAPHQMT
Assay: CV-1 transient transfection reporter gene assay, TK minimal promoter with ECRE or ER-8 FXRE
Assay type: cell-based
Settings: CV-1 cells; for concentration at which maximal activity is achieved: ECRE and ER-8 reporters; for activation of ECRE FXRE reporter: six copies of ECRE, TK minimal promoter; for activation of ER-8 FXRE reporter: two copies of ER-8, TK minimal promoter
Experimental: The ability of these compounds to activate the receptor in a number of different cell-based reporter gene assays was then determined. […] CV-1 cells were transiently transfected with an expression plasmid for mouse FXR and human RXR with a thymidine kinase (TK) minimal promoter reporter vector containing either no copies or six copies of the ecdysone response element (ECRE), a well-characterized FXR response element (FXRE). In addition, two copies of the recently identified FXRE everted repeat separated by 8 nucleotides (ER-8) was also studied (see, for example, Laffitte et al. (2000). Identification of the DNA binding specificity and potential target genes for the farnesoid X-activated receptor. J Biol Chem. 275(14), 10638-47; Kast et al. (2002). Regulation of multidrug resistance-associated protein 2 (ABCC2) by the nuclear receptors pregnane X receptor, farnesoid X-activated receptor, and constitutive androstane receptor. J Biol Chem. 277(4), 2908-15).

Row | concentration at which maximal activity is achieved [µM] | activation of ECRE FXRE reporter [fold] | activation of ER-8 FXRE reporter [fold] | Compound
1 | 1 | 100 | 4 | COC(=O)C=Cc1cccc(N(Cc2ccc(C=Cc3ccccc3)cc2)C(=O)C2CCCCC2)c1 [Compound 121]
2 | 1 | 100 | 4 | COC(=O)/C=C/c1cccc(N(Cc2ccc(-c3ccc4c(c3)OCO4)cc2)C(=O)C2CCCCC2)c1 [Compound 244]
3 | 1 | 100 | 4 | COC(=O)/C=C/c1cccc(N(Cc2ccc(-c3ccc(N(C)C)cc3)cc2)C(=O)C2CCCCC2)c1 [Compound 259]
